These results are taken from patent publication US6500825B2, “Substituted 2-aminoacetamides and the use thereof” (Euro-Celtique S.A., priority 1997, dated 2002).

SMILES strings stand for the structures. pKd: −log10 of the molar value.

Data set [1] has as its system maximal electroshock-induced seizures (MES). Put plainly: Maximal electroshock-induced seizures (MES) iv in mouse. Format: in vivo. As to conditions: administered iv 10 min before the test, tonic hindlimb extensor response. The method, then: The ability of selected 2-methylpropanamide derivatives to block maximal electroshock-induced seizures (MES) was determined by the following procedure. Seizures were induced by application of current (50 mA, 60 pulses/sec, 0.8 msec pulse width, 1 sec duration, D.C.) using a Ugo Basile ECT device (model 7801). Mice were restrained by gripping the loose skin on their dorsal surface and saline-coated corneal electrodes were held lightly against the two cornea. […] A tonic seizure was defined as a hindlimb extension in excess of 90 degrees from plane of the body. The 2-methylpropanamides tested were administered iv to mice 10 min before the test procedure.

The subject of data set [2] is voltage-sensitive Na+ channels. Briefly: Electrophysiological assay: patch-clamp recordings of voltage-sensitive Na+ currents in acutely dissociated rat hippocampal neurons. The data set is classed as cell-based. The method, then:
Electrophysiological Assay
Cell preparation: Acute cultures of rat hippocamnpal neurons were prepared daily using a modification of procedures described previously (Kuo and Bean, Mol. Pharm. 46:716-725 (1994)). Briefly, hippocampi were isolated from 3-11 day old rat pup brains (Sprague-Dawley; Charles River) and were sectioned, by hand, into 0.5-1 mm thick transyerse slices (Whittemore and Koerner, Eur. J. Pharm. 192:435-438 (1991)). Slices were incubated for at least 30 min at room temperature (20-24° C.) in an oxygenated medium (124 mM NaCl, 3.3 mM KCl, 2.4 mM MgSO4, 2.5 mM CaCl2, 1.2 mM KH2PO4, 26 mM NaHCO3, pH=7.4) continuously bubbled with 5% CO2/95% O2. Prior to recording, 4-5 slices were transferred to an oxygenated dissociation medium (82 mM NaSO4, 30 mM K2SO4, 3 mM MgCl2, 2 mM HEPES, 26 mM NaHCO3, 0.001% phenol red, pH=7.4) containing 3 mg/mL protease XXIII (Sigma, St. Louis, Mo.) and incubated for 10-15 min at 37° C., while continuously bubbling with 5% CO2/95% O2. Enzymatic digestion was terminated by transferring the slices to dissociation medium without bicarbonate, supplemented with 1 mg/mL bovine serum albumin and 1 mg/mL trypsin inhibitor (Sigma, St. Louis, Mo.). Slices were then transferred to a 35 mm culture dish containing dissociation medium without bicarbonate, and triturized with a fire-polished glass Pasteur pipette to release single cells. […]
Patch-clamp recordings of voltage-sensitive Na^+ currents: Whole-cell voltage-clamp recordings were made using conventional patch-clamp technique (Hamill et al., Pfluegers Arch. 391:85-100 (1981)) with an Axopatch 200A amplifier (Axon Instruments, Foster City, Calif.). […] Currents were recorded at room temperature (22-25° C.), filtered at 5 kHz with 4-pole Bessel filter, digitized at 20-50-μs intervals, and stored using Digidata 1200 analog/digital interface with Pclamp6/Clampex software (Axon Instruments). […] The inhibitory potency of drugs was assessed by measuring reductions in the peak amplitude of […] currents induced by increasing concentrations of compounds tested. […]

On to `CC(C)(NCc1ccc(Oc2ccc(F)cc2F)cc1)C(N)=O` [2,4-difluorophenoxy, 2-(4-(2,4-Difluorophenoxy)benzylamino)-2-methylpropanamide], for which the “iv MES activity (number protected/number screened)” value in data set [1] is given as 8/8.

Regarding `CC(C)(NCc1ccc(Oc2ccc3c(c2)OCO3)cc1)C(N)=O` [3,4-methylenedioxyphenoxy, 2-(4-(3,4-Methylenedioxyphenoxy)benzylamino)-2-methyl-propanamide], in data set [1], the “iv MES activity (number protected/number screened)” value was 8/8.

In turn, `CC(C)(NCc1ccc(Oc2ccc(F)cc2)cc1)C(N)=O` [4-fluorophenoxy, 2-(4-(4-Fluorophenoxy)benzylamino)-2-methylpropanamide] returned a melting point of 103 to 106 °C. Besides, the “iv MES activity (number protected/number screened)” value in data set [1] is listed as 8/8.

Compound `CC(C)(NCc1ccc(Oc2ccc3c(c2)CCC3)cc1)C(N)=O` [Example 5-indanoxy, 2-(4-(5-Indanoxy)benzylamino)-2-methylpropanamide] gave a melting point of 81 to 83 °C. For the same compound, the “iv MES activity (number protected/number screened)” value in data set [1] is on record as 1/8.

In the case of `CC(C)(NCc1ccc(OCc2ccccc2F)cc1)C(N)=O` [2-(4-(2-Fluorobenzyloxy)benzylamino)-2-methyl-propanamide], the “inhibition of voltage-gated Na+ currents” value in data set [2] (acutely dissociated rat hippocampal neurons) was “dose-dependent inhibition”. Further, the “effect on Na+ currents activated from a holding membrane voltage of −100 mV” value in data set [2] (concentrations between 0.1-10 μM, holding voltage −100 mV) was “very little effect”. Also, the pKd in data set [2] (inactivated Na+ channels, acutely dissociated rat hippocampal neurons, read-out: apparent antagonist dissociation constant (Kd) for inactivated Na+ channels) is around 5.92.
